Like-named read-outs stand apart in the source and are kept apart here.
Key:
[1] = molecular target: Mcl-1 (Homo sapiens (Human), UniProt Q07820); experiment: Fluorescence polarization competition assay (FPCA), Mcl-1 / FITC-Bak BH3 peptide; format: binding; conditions: for Mcl-1 Exp ΔG: ΔG=−RTlnKi from experimental Ki
Text: The tagged protein was initially purified from the crude cell lysate by immobilized metal affinity chromatography (IMAC) chromatography (GE Healthcare Life Sciences), and after dialysis to remove the imidazole the affinity tag was cleaved using PreScission Protease (GE Healthcare Life Sciences). A Sephacryl S-200 size exclusion column was used as a final purification step before the protein was concentrated with a 10,000 MWCO centifugal filter concentrator (Millipore).
(§1) Fluorescence polarization experiments were conducted using a BMG PHERAstar FS multimode microplate reader equipped with two PMTs for simultaneous measurements of the perpendicular and parallel fluorescence emission. The assays were performed in black polypropylene 384-well microplate (Costar) with a final volume of 20 microliter. […] Regression analysis was carried out using Origin (OriginLab, Northampton, Mass.) to fit the data to the Hill equation (1) to determine the initial binding affinity (KD) and the IC50 in the FPCA. For the fluorescence polarization competition titrations, an equation derived by Nikolovska-Coleska et al. was used to calculate the Ki from the IC50 data.
The target molecules were assayed for their abilities to disrupt the Mcl-1-Bak-BH3 PPI in a fluorescence polarization competition (FPC) assay with Mcl-1 and FITC-labeled Bak-BH3 peptide. Further details on the FPC assay can be found in the Supporting Information.

[2] = molecular target: Bcl-xL (Homo sapiens (Human), UniProt Q07817); experiment: Fluorescence polarization competition assay, Bcl-xL; format: binding; conditions: for Bcl-xL Exp ΔG: ΔG from experimental Ki
Method: as §1

[3] = FPCA with FITC-Bak, Ki from IC50 by Nikolovska-Coleska equation, read-out: Mcl-1 Ki
[4] = Ki from IC50 by Nikolovska-Coleska equation, NA = no activity, read-out: Bcl-xL Ki
[5] = fluorescence polarization competition assay, read-out: Ki (μM) Mcl-1

Mcl-1, sequence (Q07820 172-327): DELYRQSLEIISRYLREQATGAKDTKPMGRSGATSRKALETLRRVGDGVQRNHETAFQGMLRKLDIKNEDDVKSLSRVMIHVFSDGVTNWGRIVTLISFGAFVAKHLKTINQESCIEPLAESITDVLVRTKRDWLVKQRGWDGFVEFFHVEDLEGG
Bcl-xL, sequence (Q07817 whole entry): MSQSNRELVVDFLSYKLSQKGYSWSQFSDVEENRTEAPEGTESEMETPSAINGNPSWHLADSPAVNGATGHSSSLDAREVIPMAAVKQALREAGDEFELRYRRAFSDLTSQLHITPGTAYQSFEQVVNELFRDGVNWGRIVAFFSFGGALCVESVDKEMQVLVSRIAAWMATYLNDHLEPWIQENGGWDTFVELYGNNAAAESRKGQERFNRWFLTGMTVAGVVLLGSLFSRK

| Compound | Ki [1, 3] [µM] | further results |
| --- | --- | --- |
| CC(C)CN(c1ccc(OC(C)C)cc1)S(=O)(=O)c1cc(C(=O)O)c(O)c2ccccc12 [3ba; MEL-2-116] |  | Mcl-1 Exp ΔG [1]: -8.61 kcal/mol; Bcl-xL Exp ΔG [2]: -7.11 kcal/mol |
| CC(C)CN(c1ccc(C(=O)O)c(O)c1)S(=O)(=O)c1ccc(-c2ccccc2)cc1 [4jc117-4 13ac] | 4.11 ± 0.245 | Ki [2, 4]: 10.8 ± 2.55 µM |
| Cc1cc(Oc2ccc(S(=O)(=O)N(CC(C)C)c3ccc(C(=O)O)c(O)c3)cc2)cc(C)c1Cl [Compound 4jc117-6] |  | Ki [1, 5]: 0.02 ± 0.012 µM; Ki ([2]; fluorescence polarization competition assay, read-out: Ki (μM) Bcl-xL): 0.05 ± 0.01 µM |
| Cc1cc(Oc2ccc(N(Cc3ccccc3)S(=O)(=O)c3cc(C(=O)O)c(O)c4ccccc34)cc2)cc(C)c1Cl [3bl; JY-5-380] |  | Mcl-1 Exp ΔG [1]: -10.24 kcal/mol; Bcl-xL Exp ΔG [2]: -8.82 kcal/mol |
| Cc1cc(Oc2ccc(S(=O)(=O)N(Cc3ccccc3)c3ccc(O)c(C(=O)NS(=O)(=O)c4ccc(NCC5CCOCC5)c([N+](=O)[O-])c4)c3)cc2)cc(C)c1Cl [LC-5-132 33] | 1.01 ± 0.08 | Ki [2, 4]: 1.54 ± 0.226 µM |
| Cc1cc(Oc2ccc(S(=O)(=O)N(Cc3ccccc3)c3ccc(O)c(C(=O)O)c3)cc2)cc(C)c1Cl [LC-5-129 29] | 1.4 ± 0.47 | Ki [2, 4]: 1.82 ± 0.234 µM |
| CC(C)CN(c1ccc(C(=O)O)c(O)c1)S(=O)(=O)c1ccc2ccccc2c1 [4jc117-3 13ab] | 13.8 ± 1.32 | Ki [2, 4]: 43.1 ± 14.7 µM |
| Cc1cc(Oc2ccc(S(=O)(=O)N(c3ccc(C(=O)O)c(O)c3)C3CCCC3)cc2)cc(C)c1Cl [LC-4-104 13bc] | 1.76 ± 0.208 | Ki [2, 4]: 1.91 ± 0.117 µM |
| CC(C)Oc1ccc(NS(=O)(=O)c2cc(C(=O)O)c(O)c3ccccc23)cc1 [3aa; SF-5-293] |  | Mcl-1 Exp ΔG [1]: -5.82 kcal/mol |
| CC(C)CN(c1ccc(C(=O)O)c(O)c1)S(=O)(=O)c1ccc2ccccc2c1 [Compound 4jc117-3, 2-hydroxy-4-(N-isobutylnaphthalene-2-sulfonamido)benzoic acid] |  | Ki [1, 5]: 60.3 ± 24.4 µM |
| O=C(O)c1ccc2c(c1)CCCN2S(=O)(=O)c1ccc(-c2ccccc2)cc1 [LC-3-002, 1-([1,1′-biphenyl]-4-ylsulfonyl)-1,2,3,4-tetrahydroquinoline-6-carboxylic acid] | 14 |  |
| O=C(O)c1cc(S(=O)(=O)Nc2cccc(-c3ccccc3)c2)c2ccccc2c1O [3s; LC-3-192] |  | Mcl-1 Exp ΔG [1]: -7.81 kcal/mol |
| O=C(O)C1CNc2ccccc2C1 (racemic) [±-6, 1,2,3,4-tetrahydroquinoline-3-carboxylic acid] | > 500 | Ki ([1]; FPC assay, read-out: Mcl-1 Ki): > 500 µM |
| CC(C)c1ccc(NS(=O)(=O)c2cc(C(=O)O)c(O)c3ccccc23)cc1 [3y; 5JC74-2] |  | Mcl-1 Exp ΔG [1]: -7.38 kcal/mol |
| O=C(O)c1cc(S(=O)(=O)N2CCN(c3ccccc3)CC2)c2ccccc2c1O [Compound 3j, 1-Hydroxy-4-((4-phenylpiperazin-1-yl)sulfonyl)-2-naphthoic Acid] | 4.54 ± 3.86 |  |
| COc1cc(N(CC(C)C)S(=O)(=O)c2ccc(Oc3ccccc3)cc2)ccc1C(=O)O [LC-5-106 19] | 107 ± 31.1 |  |
| CC(C)Oc1ccc(NS(=O)(=O)c2cc(C(=O)O)c(O)c3ccccc23)cc1 [Compound 3aa, 1-Hydroxy-4-(N-(4-isopropoxyphenyl)sulfamoyl)-2-naphthoic Acid] | 54 ± 4.6 |  |
| O=C(O)C1Cc2ccccc2N(S(=O)(=O)c2ccc(Br)cc2)C1 (racemic) [±-8b] | 117 ± 19 | Ki ([1]; FPC assay, read-out: Mcl-1 Ki): 117 µM |
| O=C(O)c1cc(S(=O)(=O)Nc2ccccc2Br)c2ccccc2c1O [Compound 3m, 4-(N-(2-bromophenyl)sulfamoyl)-1-hydroxy-2-naphthoic Acid] | 6.84 ± 2.23 |  |
| O=C(O)C1Cc2ccccc2N(S(=O)(=O)c2ccc3ccccc3c2)C1 (racemic) [±-8e] | 59 ± 6 |  |
| CC(C)CN(c1ccc(C(=O)O)c(O)c1)S(=O)(=O)c1ccc(Br)cc1 [LC-5-012 13ae] | 17 ± 1.5 |  |
| Cc1cc(Oc2ccc(S(=O)(=O)N(CC(C)C)c3ccc(C(=O)O)cc3)cc2)cc(C)c1Cl [LC-3-035 8e] | 2.06 ± 0.118 |  |
| O=C(O)c1cc(S(=O)(=O)Nc2ccc(Oc3ccc(Cl)cc3)cc2)c2ccccc2c1O [3bh; SF-5-304] |  | Mcl-1 Exp ΔG [1]: -9.22 kcal/mol |
| CC(C)c1ccc(NS(=O)(=O)c2cc(C(=O)O)c(O)c3ccccc23)cc1 [Compound 3y, 1-Hydroxy-4-(N-(4-isopropylphenyl)sulfamoyl)-2-naphthoic Acid] | 3.86 ± 1.53 |  |
| O=C(O)c1ccc2c(c1)CCCN2S(=O)(=O)c1ccc(Br)cc1 [LC-3-004, 1-((4-bromophenyl)sulfonyl)-1,2,3,4-tetrahydroquinoline-6-carboxylic acid] | 203 |  |
| O=C(O)c1cc(S(=O)(=O)Nc2ccccc2Br)c2ccccc2c1O [3m; TA-1-019] |  | Mcl-1 Exp ΔG [1]: -7.04 kcal/mol |

| Compound | Ki [1, 3] [µM] | further results |
| --- | --- | --- |
| O=C(O)c1ccc2c(c1)CCCN2S(=O)(=O)c1ccc2ccccc2c1 [LC-3-006, 1-(naphthalen-2-ylsulfonyl)-1,2,3,4-tetrahydroquinoline-6-carboxylic acid] | 22 |  |
| O=C(O)C1Cc2ccccc2N(S(=O)(=O)c2ccc(F)cc2)C1 (racemic) [SF-5-136, (±)-1-((4-fluorophenyl)sulfonyl)-1,2,3,4-tetrahydroquinoline-3-carboxylic acid] |  | Ki ([1]; read-out: Mcl-1 Ki): > 1000 µM |
| Cc1cc(Oc2ccc(S(=O)(=O)N(CC(C)C)c3ccc(C(=O)O)cc3)cc2)cc(C)c1Cl [LC-3-035, 4-(4-(4-chloro-3,5-dimethylphenoxy)-N-isobutylphenylsulfonamido)benzoic acid] |  | Ki [1, 5]: 0.261 ± 0.558 µM |
| CC(C)CN(c1ccc(-c2cc(=O)[nH]o2)cc1)S(=O)(=O)c1ccc(Oc2ccccc2)cc1 [LC-5-069Toptop 26] | > 500 |  |
| O=C(O)C1Cc2ccccc2N(S(=O)(=O)c2ccc(-c3ccccc3)cc2)C1 (racemic) [SF-5-133, (±)-1-([1,1′-biphenyl]-4-ylsulfonyl)-1,2,3,4-tetrahydroquinoline-3-carboxylic acid] |  | Ki ([1]; read-out: Mcl-1 Ki): 12 µM |
| Cc1ccc(S(=O)(=O)N(CC(C)C)c2cccc(C(=O)O)c2)cc1 [4jc177-2 18ae] | 155 ± 14.7 |  |
| CC(C)CN(c1ccc(C(=O)NO)c(O)c1)S(=O)(=O)c1ccc(Oc2ccccc2)cc1 [LC-5-061 25] | 71 ± 5.8 |  |
| CC(C)CN(c1cccc(C(=O)O)c1)S(=O)(=O)c1ccc(-c2ccccc2)cc1 [4jc177-4 18ac] | > 500 |  |
| N#Cc1cccc(NS(=O)(=O)c2cc(C(=O)O)c(O)c3ccccc23)c1 [Compound 3ad, 4-(N-(3-Cyanophenyl)sulfamoyl)-1-hydroxy-2-naphthoic Acid] | 26.9 ± 0.6 |  |
| Cc1ccc(S(=O)(=O)N(CC(C)C)c2ccc(C(=O)O)c(O)c2)cc1 [4jc117-2 13af] | 61.2 ± 4.49 |  |
| O=C(O)C1Cc2ccccc2N(S(=O)(=O)c2ccc(-c3ccccc3)cc2)C1 (racemic) [±-8d] | > 500 | Ki ([1]; FPC assay, read-out: Mcl-1 Ki): > 500 µM |
| CC(C)CN(c1ccc(C(=O)O)c(O)c1)S(=O)(=O)c1ccc(-c2ccccc2)cc1 [Compound 4jc117-4, 2-hydroxy-4-(N-isobutyl-[1,1′-biphenyl]-4-ylsulfonamido)benzoic acid] |  | Ki [1, 5]: 7.87 ± 0.263 µM |
| Cc1ccc(NS(=O)(=O)c2cc(C(=O)O)c(O)c3ccccc23)cc1 [3x; 5JC74-1] |  | Mcl-1 Exp ΔG [1]: -6.09 kcal/mol |
| CC(C)CN(c1cccc(C(=O)O)c1)S(=O)(=O)c1ccc(F)cc1 [4jc177-6 18ad] | > 500 |  |
| N#Cc1ccc(NS(=O)(=O)c2cc(C(=O)O)c(O)c3ccccc23)cc1 [3ab; TA-1-018] |  | Mcl-1 Exp ΔG [1]: -6.35 kcal/mol |
| O=C(O)c1cc(S(=O)(=O)Nc2ccc(C(F)(F)F)cc2)c2ccccc2c1O [Compound 3w, 1-Hydroxy-4-(N-(4-(trifluoromethyl)phenyl)sulfamoyl)-2-naphthoic Acid] | 2.5 ± 0.65 |  |
| CC(C)CN(c1ccc(C(=O)O)cc1)S(=O)(=O)c1ccccc1 [LC-3-029 8a] | > 500 |  |
| N#Cc1ccc(NS(=O)(=O)c2cc(C(=O)O)c(O)c3ccccc23)cc1 [Compound 3ab, 4-(N-(4-Cyanophenyl)sulfamoyl)-1-hydroxy-2-naphthoic Acid] | 22.2 ± 1.6 |  |
| O=C(O)c1cc(S(=O)(=O)NCc2ccccc2Cl)c2ccccc2c1O [Compound 3d, 4-(N-(2-Chlorobenzyl)sulfamoyl)-1-hydroxy-2-naphthoic Acid] | 50.3 ± 11.8 |  |
| O=C(O)c1cc(S(=O)(=O)N2CCN(Cc3ccccc3)CC2)c2ccccc2c1O [Compound 3k, 4-((4-Benzylpiperazin-1-yl)sulfonyl)-1-hydroxy-2-naphthoic Acid] | 3.41 ± 0.37 |  |
| Cc1cc(Oc2ccc(S(=O)(=O)N3CC(C(=O)O)Cc4ccccc43)cc2)cc(C)c1Cl (racemic) [SF-5-141, (±)-1-((4-(4-chloro-3,5-dimethylphenoxy)phenyl)sulfonyl)-1,2,3,4-tetrahydroquinoline-3-carboxylic acid] |  | Ki ([1]; read-out: Mcl-1 Ki): 0.286 µM |
| O=C(O)c1cc(S(=O)(=O)Nc2ccc(Cl)cc2)c2ccccc2c1O [3v; 5JC67] |  | Mcl-1 Exp ΔG [1]: -7.80 kcal/mol |
| CN(C)S(=O)(=O)c1cc(C(=O)O)c(O)c2ccccc12 [3h; SF-5-295] |  | Mcl-1 Exp ΔG [1]: -6.26 kcal/mol |
| O=C(O)c1cc(S(=O)(=O)Nc2ccccc2)c2ccccc2c1O [3l; SF-5-311] |  | Mcl-1 Exp ΔG [1]: -5.42 kcal/mol |
| O=C(O)c1cc(S(=O)(=O)Nc2ccccc2-c2ccccc2)c2ccccc2c1O [3r; LC-4-002] |  | Mcl-1 Exp ΔG [1]: -6.91 kcal/mol |

Reference: patent publication US10858316B2, “Small molecule inhibitors of the MCL-1 oncoprotein and uses thereof” (University of Maryland, Baltimore, priority 2015, dated 2020)
